Experimental data from ChEMBL document CHEMBL1201862, “PubChem BioAssay data set” (2004).
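Exposure lasted 48 hours, with cells grown in 96-well plates and compounds tested at five concentrations. Here, GI50 denotes the concentration required for 50% inhibition of growth.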 Active and inactive are the calls of the source. Rule as the data show it: active = GI50 up to about 1.1 µM and inactive = higher.

Legend:
Test in all cases: NCI anticancer screen, dose series, 48 h
KM12 = tested on: KM12
HCT-116 = tested on: HCT-116
MOLT-4 = tested on: MOLT-4
K562 = tested on: K562
OVCAR-3 = tested on: OVCAR-3
SNB-19 = tested on: SNB-19
SK-MEL-5 = tested on: SK-MEL-5
UO-31 = tested on: UO-31
OVCAR-8 = tested on: OVCAR-8
SNB-75 = tested on: SNB-75
TK-10 = tested on: TK-10
HOP-92 = tested on: HOP-92
HCC 2998 = tested on: HCC 2998
COLO 205 = tested on: COLO 205
NCI-H226 = tested on: NCI-H226

Structure (SMILES) | GI50 (KM12) | GI50 (HCT-116) | GI50 (MOLT-4) | GI50 (K562) | GI50 (OVCAR-3) | GI50 (SNB-19) | GI50 (SK-MEL-5) | GI50 (UO-31) | GI50 (OVCAR-8) | GI50 (SNB-75) | GI50 (TK-10) | GI50 (HOP-92) | GI50 (HCC 2998) | GI50 (COLO 205) | GI50 (NCI-H226)
CC(C)=CC(=O)N1CCN(C(=O)C=C(C)C)CC1 | > 100 µM (inactive) | > 100 µM (inactive) | > 100 µM (inactive) | > 100 µM (inactive) | > 100 µM (inactive) | > 100 µM (inactive) | > 100 µM (inactive) | > 100 µM (inactive) | > 100 µM (inactive) | > 100 µM (inactive) | > 100 µM (inactive) | > 100 µM (inactive) | > 100 µM (inactive) |  | 
O=C1C2C3CC(C4C5C=CC(C5)C34)C2C2C3CC(C12)C1C2C=CC(C2)C31 (stereo not given) | > 100 µM (inactive) | > 100 µM (inactive) | > 100 µM (inactive) | > 100 µM (inactive) | > 100 µM (inactive) | > 100 µM (inactive) | > 100 µM (inactive) | > 100 µM (inactive) | > 100 µM (inactive) | > 100 µM (inactive) | > 100 µM (inactive) | > 100 µM (inactive) | > 100 µM (inactive) | > 100 µM (inactive) | > 100 µM (inactive)
CC(=O)NNc1nc(C)c(C(/C=C/c2ccc(Cl)cc2)=N\NS(=O)(=O)c2ccc(C)cc2)s1 | > 100 µM (inactive) | > 100 µM (inactive) | > 100 µM (inactive) | > 100 µM (inactive) | > 100 µM (inactive) | > 100 µM (inactive) | > 100 µM (inactive) | > 100 µM (inactive) | > 100 µM (inactive) | > 100 µM (inactive) | > 100 µM (inactive) | > 100 µM (inactive) | > 100 µM (inactive) | > 100 µM (inactive) | > 100 µM (inactive)
NC(=O)c1cc([N+](=O)[O-])cc([N+](=O)[O-])c1 [NITROMIDE] | > 100 µM (inactive) | > 100 µM (inactive) | > 100 µM (inactive) | > 100 µM (inactive) | > 100 µM (inactive) | > 100 µM (inactive) | > 100 µM (inactive) | > 100 µM (inactive) | > 100 µM (inactive) | > 100 µM (inactive) | > 100 µM (inactive) | > 100 µM (inactive) |  | 30.3 µM (inactive) | > 100 µM (inactive)
O=C1C(Cl)C(c2ccccc2Cl)N1n1cnc2ccccc2c1=O (stereo not given) | > 100 µM (inactive) | 36.1 µM (inactive) | 68.5 µM (inactive) | 18.7 µM (inactive) | > 100 µM (inactive) | 22.5 µM (inactive) | > 100 µM (inactive) | 7.52 µM (inactive) | > 100 µM (inactive) | 20.2 µM (inactive) | 46.7 µM (inactive) |  | 39.6 µM (inactive) | > 100 µM (inactive) | 8.32 µM (inactive)
CC(CN1CCN(CC(C)Nc2ccnc3cc(Cl)ccc23)CC1)Nc1ccnc2cc(Cl)ccc12 (stereo not given) | 13.4 µM (inactive) | 13.4 µM (inactive) | 9.38 µM (inactive) | 2.84 µM (inactive) | 22.8 µM (inactive) | 29 µM (inactive) | 17.5 µM (inactive) | 22.7 µM (inactive) | 18.9 µM (inactive) | 16.9 µM (inactive) | 23.9 µM (inactive) |  | 16.6 µM (inactive) | 14.4 µM (inactive) | 28.4 µM (inactive)
O=C(Cc1nc2ccccc2s1)C(=O)Nc1cccc(C(F)(F)F)c1 | > 100 µM (inactive) | > 100 µM (inactive) | > 100 µM (inactive) |  | > 100 µM (inactive) | > 100 µM (inactive) | > 100 µM (inactive) | > 100 µM (inactive) | > 100 µM (inactive) | > 100 µM (inactive) | > 100 µM (inactive) | > 100 µM (inactive) | > 100 µM (inactive) | > 100 µM (inactive) | > 100 µM (inactive)
O=[N+]([O-])c1ccc(C(Cl)C(Cl)c2ccc(C(Cl)C(Cl)c3ccc([N+](=O)[O-])cc3[N+](=O)[O-])cc2)c([N+](=O)[O-])c1 (stereo not given) | 0.264 µM (active) | 0.931 µM (active) | 1.61 µM (inactive) | 0.187 µM (active) | 0.254 µM (active) | 0.671 µM (active) | 0.991 µM (active) | 2.17 µM (inactive) | 0.912 µM (active) | 8.02 µM (inactive) | 5.79 µM (inactive) | 1.28 µM (inactive) | 1.96 µM (inactive) | 1 µM (active) | 2.29 µM (inactive)
O=C(c1ccccc1)c1c(CC(O)c2ccccc2)n(C(=O)c2ccccc2)c2ccccc12 (stereo not given) | 32 µM (inactive) | 23.1 µM (inactive) | 16.6 µM (inactive) | 27.9 µM (inactive) | 28.8 µM (inactive) | 36.4 µM (inactive) | 29.2 µM (inactive) | 19.9 µM (inactive) | 57.7 µM (inactive) | 6.97 µM (inactive) | > 100 µM (inactive) | 29.7 µM (inactive) | 42.1 µM (inactive) | 47.6 µM (inactive) | 31.6 µM (inactive)
O=C1N=CN=C2C=CC(Cl)=C(I)C12 (stereo not given) | > 100 µM (inactive) | 42.5 µM (inactive) | 67.1 µM (inactive) | > 100 µM (inactive) | 63 µM (inactive) | 47.9 µM (inactive) | 98.2 µM (inactive) | 26.2 µM (inactive) | > 100 µM (inactive) |  | 80.9 µM (inactive) |  | > 100 µM (inactive) | > 100 µM (inactive) | 
CCOC(=O)CCc1c(C)c2c(OC)cc(OC)cc2oc1=O | > 100 µM (inactive) | > 100 µM (inactive) |  |  | > 100 µM (inactive) | > 100 µM (inactive) |  | 65.9 µM (inactive) | > 100 µM (inactive) | 21.5 µM (inactive) | > 100 µM (inactive) | 22.3 µM (inactive) | > 100 µM (inactive) | > 100 µM (inactive) | 25.5 µM (inactive)
O=[N+]([O-])C1C2C=CC(C2)[C@H]1c1ccc(Cl)cc1Cl (stereo not given in full) | 61.2 µM (inactive) | 37 µM (inactive) | 26.7 µM (inactive) | 35.4 µM (inactive) |  | 48.5 µM (inactive) | 4.36 µM (inactive) | 26.4 µM (inactive) | 57.1 µM (inactive) | 11.4 µM (inactive) | 69.7 µM (inactive) | 23.3 µM (inactive) | 75.5 µM (inactive) |  | 49 µM (inactive)
CC1=C(C(=O)O)N2C(=O)[C@@H](NC(=O)C(c3ccc(O)cc3)N3CSC(=S)N(C(C)C)C3)C2SC1 (stereo not given in full) | > 100 µM (inactive) | > 100 µM (inactive) | > 100 µM (inactive) | 57.8 µM (inactive) | 99.1 µM (inactive) | > 100 µM (inactive) | > 100 µM (inactive) | > 100 µM (inactive) | > 100 µM (inactive) | > 100 µM (inactive) | > 100 µM (inactive) | > 100 µM (inactive) |  | 97.7 µM (inactive) | 
COC(=O)[C@]1(C)CCC[C@@]2(C)C1CCC1=CC3(C(C)C)CCC12OO3 (stereo not given in full) | > 100 µM (inactive) | 42 µM (inactive) | 20 µM (inactive) | 27.7 µM (inactive) | > 100 µM (inactive) | > 100 µM (inactive) | 31.1 µM (inactive) | 41 µM (inactive) | 63.8 µM (inactive) |  | > 100 µM (inactive) |  | 88.5 µM (inactive) | > 100 µM (inactive) | 43.7 µM (inactive)
CN(C)CC/C(=N\Nc1ccc(Cl)c(Cl)c1)c1ccccc1 | 2.05 µM (inactive) | 1.73 µM (inactive) | 2.17 µM (inactive) | 1.93 µM (inactive) | 2.8 µM (inactive) | 3.49 µM (inactive) | 1.84 µM (inactive) | 1.45 µM (inactive) | 1.87 µM (inactive) | 2.4 µM (inactive) | 1.98 µM (inactive) |  |  | 1.77 µM (inactive) | 
CN1C(=S)CSc2ccccc21 | > 100 µM (inactive) | > 100 µM (inactive) | > 100 µM (inactive) | > 100 µM (inactive) | > 100 µM (inactive) | > 100 µM (inactive) | 97.1 µM (inactive) | 42.3 µM (inactive) | > 100 µM (inactive) | 42.9 µM (inactive) | > 100 µM (inactive) | 90.2 µM (inactive) |  | > 100 µM (inactive) | 89.1 µM (inactive)
CC(C)[C@H](CCl)NC(=O)c1cccc(C(=O)N[C@H](CCl)C(C)C)n1 (stereo in doubt) | > 100 µM (inactive) | > 100 µM (inactive) | > 100 µM (inactive) | > 100 µM (inactive) | > 100 µM (inactive) | > 100 µM (inactive) | > 100 µM (inactive) | > 100 µM (inactive) |  | > 100 µM (inactive) | > 100 µM (inactive) | > 100 µM (inactive) | > 100 µM (inactive) | > 100 µM (inactive) | > 100 µM (inactive)
Cc1c(CCO)c(O)n2c(nc3ccccc32)c1C#N | > 100 µM (inactive) | 41.3 µM (inactive) |  | 99.5 µM (inactive) | 92.5 µM (inactive) | 30.3 µM (inactive) | 21.8 µM (inactive) | 65.8 µM (inactive) | 83.9 µM (inactive) | > 100 µM (inactive) | > 100 µM (inactive) | 33.1 µM (inactive) | > 100 µM (inactive) | > 100 µM (inactive) | 98.4 µM (inactive)
C[n+]1c2ccccc2c(NCC(=O)O)c2ccccc21 | > 100 µM (inactive) | 86.7 µM (inactive) | > 100 µM (inactive) | > 100 µM (inactive) | > 100 µM (inactive) | > 100 µM (inactive) | > 100 µM (inactive) | > 100 µM (inactive) | > 100 µM (inactive) | > 100 µM (inactive) | > 100 µM (inactive) |  | > 100 µM (inactive) | > 100 µM (inactive) | > 100 µM (inactive)
